In ChEMBL document CHEMBL4177696, “Identification of a diverse synthetic abietane diterpenoid library and insight into the structure-activity relationships for antibacterial activity” (Bioorg Med Chem Lett, 2017):
In brackets after ≈: the same amount, converted by molar mass.

Key:
[1] = test system: Staphylococcus aureus; assay: Antibacterial activity against Staphylococcus aureus measured after 24 hrs; format: functional
[2] = test system: Bacillus subtilis; assay: Antibacterial activity against Bacillus subtilis measured after 24 hrs; format: functional
[3] = test system: Escherichia coli; assay: Antibacterial activity against Escherichia coli measured after 24 hrs; format: functional
[4] = test system: Pseudomonas fluorescens; assay: Antibacterial activity against Pseudomonas fluorescens measured after 24 hrs; format: functional
[5] = Cytotoxicity against HFF measured after 72 hrs by MTT assay; format: cell-based; conditions: human, HFF cells
[6] = Cytotoxicity against human HL-7702 cells measured after 72 hrs by MTT assay; format: cell-based; conditions: HL-7702 (L02) cells

SMILES | MIC [1] [µg/mL] | MIC [2] [µg/mL] | MIC [3] [µg/mL] | MIC [4] [µg/mL] | CC50 at 72 h [5] [µg/mL] | CC50 at 72 h [6] [µg/mL]
COC(=O)[C@]1(C)CCC[C@]2(C)c3ccc(C(C)C)c(NC(=O)Cn4cc(-c5ccc6ccccc6c5)nn4)c3CC[C@@H]12 | 75 (≈ 133 µM) | 50 (≈ 88.5 µM) | 25 (≈ 44.3 µM) | 25 (≈ 44.3 µM) |  | 
COC(=O)[C@]1(C)CCC[C@]2(C)c3ccc(C(C)C)c(NC(=O)Cn4cc(-c5ccc(OC(F)(F)F)cc5)nn4)c3CC[C@@H]12 | 25 (≈ 41.8 µM) | 50 (≈ 83.5 µM) | 50 (≈ 83.5 µM) | 75 (≈ 125 µM) |  | 
COC(=O)[C@]1(C)CCC[C@]2(C)c3ccc(C(C)C)c(NC(=O)Cn4cc(-c5ccc(-c6ccccc6)cc5)nn4)c3CC[C@@H]12 | 50 (≈ 84.6 µM) | 75 (≈ 127 µM) | 25 (≈ 42.3 µM) | 50 (≈ 84.6 µM) |  | 
COC(=O)[C@]1(C)CCC[C@]2(C)c3ccc(C(C)C)c(NC(=O)Cn4cc(-c5ccc(C#N)cc5)nn4)c3CC[C@@H]12 | 25 (≈ 46.3 µM) | 12.5 (≈ 23.2 µM) | 12.5 (≈ 23.2 µM) | 25 (≈ 46.3 µM) |  | 
CCCCCOc1ccc(-c2cn(CC(=O)Nc3c(C(C)C)ccc4c3CC[C@H]3[C@](C)(C(=O)OC)CCC[C@]43C)nn2)cc1 | 100 (≈ 166 µM) | 75 (≈ 125 µM) | 75 (≈ 125 µM) | 75 (≈ 125 µM) |  | 
COC(=O)[C@]1(C)CCC[C@]2(C)c3ccc(C(C)C)c(NC(=O)Cn4cc(-c5cccc(Br)c5)nn4)c3CC[C@@H]12 | 25 (≈ 42.1 µM) | 25 (≈ 42.1 µM) | 12.5 (≈ 21.1 µM) | 12.5 (≈ 21.1 µM) |  | 
COC(=O)[C@]1(C)CCC[C@]2(C)c3ccc(C(C)C)c(NC(=O)Cn4cc(-c5ccc(OCc6ccccc6)cc5)nn4)c3CC[C@@H]12 | 50 (≈ 80.5 µM) | 50 (≈ 80.5 µM) | 75 (≈ 121 µM) | 75 (≈ 121 µM) |  | 
COC(=O)[C@]1(C)CCC[C@]2(C)c3ccc(C(C)C)c(NC(=O)Cn4cc(-c5cccc(Cl)c5)nn4)c3CC[C@@H]12 | 50 (≈ 91.1 µM) | 12.5 (≈ 22.8 µM) | 12.5 (≈ 22.8 µM) | 25 (≈ 45.5 µM) |  | 
COC(=O)[C@]1(C)CCC[C@]2(C)c3ccc(C(C)C)c(NC(=O)Cn4cc(-c5ccc(C(F)(F)F)cc5)nn4)c3CC[C@@H]12 | 25 (≈ 42.9 µM) | 12.5 (≈ 21.5 µM) | 12.5 (≈ 21.5 µM) | 25 (≈ 42.9 µM) |  | 
COC(=O)[C@]1(C)CCC[C@]2(C)c3ccc(C(C)C)c(NC(=O)Cn4cc(-c5cc(Cl)cc(Cl)c5)nn4)c3CC[C@@H]12 | 25 (≈ 42.8 µM) | 25 (≈ 42.8 µM) | 25 (≈ 42.8 µM) | 50 (≈ 85.7 µM) |  | 
COC(=O)[C@]1(C)CCC[C@]2(C)c3ccc(C(C)C)c(NC(=O)Cn4cc(-c5ccc(Br)cc5)nn4)c3CC[C@@H]12 | 25 (≈ 42.1 µM) | 12.5 (≈ 21.1 µM) | 25 (≈ 42.1 µM) | 6.3 (≈ 10.6 µM) |  | 
COc1c(C(C)C)ccc2c1CC=C1C3=C(CCC12C)C(=O)OC3 (single isomer, unassigned) | 75 (≈ 231 µM) | 100 (≈ 308 µM) | 75 (≈ 231 µM) | 100 (≈ 308 µM) |  | 
CC(C)C1=CC2=CC[C@@H]3[C@](C)(CCC[C@@]3(C)C(=O)O)[C@H]2CC1 [ABIETIC ACID] | 25 (≈ 82.7 µM) | 50 (≈ 165 µM) | 50 (≈ 165 µM) | 25 (≈ 82.7 µM) |  | 
CC(C)c1ccc2c(c1)CC[C@H]1[C@](C)(C(=O)O)CCC[C@]21C [DEHYDROABIETIC ACID] | 25 (≈ 83.2 µM) | 50 (≈ 166 µM) | 75 (≈ 250 µM) | 50 (≈ 166 µM) |  | 
COC(=O)[C@]1(C)CCC[C@@]2(C)[C@H]1CC=C1C=C(C(C)C)CC[C@@H]12 [METHYL ABIETATE] | 50 (≈ 158 µM) | 75 (≈ 237 µM) | 75 (≈ 237 µM) | 50 (≈ 158 µM) |  | 
COC(=O)[C@]1(C)CCC[C@]2(C)c3ccc(C(C)C)cc3CC[C@@H]12 [METHYL DEHYDROABIETATE] | 75 (≈ 238 µM) | 100 (≈ 318 µM) | 100 (≈ 318 µM) | 100 (≈ 318 µM) |  | 
CCn1cc(C(=O)O)c(=O)c2cc(F)c(N3CCNCC3)cc21 [NORFLOXACIN] | 1.6 (≈ 5.01 µM) | 1.6 (≈ 5.01 µM) | 3.1 (≈ 9.71 µM) | 1.6 (≈ 5.01 µM) |  | 
CC(C)c1ccc2c(c1O)CC[C@H]1C3=C(CC[C@]21C)C(=O)OC3 [TRIPTOPHENOLIDE] | 75 (≈ 240 µM) | 50 (≈ 160 µM) | 100 (≈ 320 µM) | 75 (≈ 240 µM) |  | 

Further molecules by falling MIC [1], results first:

MIC [1] [µg/mL] | MIC [2] [µg/mL] | MIC [3] [µg/mL] | MIC [4] [µg/mL] | SMILES | CC50 at 72 h [5] [µg/mL] | CC50 at 72 h [6] [µg/mL]
25 (≈ 44.7 µM) | 50 (≈ 89.3 µM) | 75 (≈ 134 µM) | 12.5 (≈ 22.3 µM) | COC(=O)[C@]1(C)CCC[C@]2(C)c3ccc(C(C)C)c(NC(=O)Cn4cc(-c5ccc([N+](=O)[O-])cc5)nn4)c3CC[C@@H]12 |  | 
25 (≈ 44.7 µM) | 50 (≈ 89.3 µM) | 75 (≈ 134 µM) | 50 (≈ 89.3 µM) | COC(=O)[C@]1(C)CCC[C@]2(C)c3ccc(C(C)C)c(NC(=O)Cn4cc(-c5cccc([N+](=O)[O-])c5)nn4)c3CC[C@@H]12 |  | 
25 (≈ 48.5 µM) | 12.5 (≈ 24.2 µM) | 12.5 (≈ 24.2 µM) | 12.5 (≈ 24.2 µM) | COC(=O)[C@]1(C)CCC[C@]2(C)c3ccc(C(C)C)c(NC(=O)Cn4cc(-c5ccccn5)nn4)c3CC[C@@H]12 |  | 
25 (≈ 43.5 µM) | 100 (≈ 174 µM) | 75 (≈ 130 µM) | 75 (≈ 130 µM) | COC(=O)[C@]1(C)CCC[C@]2(C)c3ccc(C(C)C)c(NC(=O)Cn4cc(-c5cc(OC)cc(OC)c5)nn4)c3CC[C@@H]12 |  | 
12.5 (≈ 24 µM) | 6.3 (≈ 12.1 µM) | 50 (≈ 96 µM) | 6.3 (≈ 12.1 µM) | COC(=O)[C@]1(C)CCC[C@]2(C)c3ccc(C(C)C)c(NC(=O)Cn4cc(-c5cccs5)nn4)c3CC[C@@H]12 |  | 
12.5 (≈ 21.8 µM) | 12.5 (≈ 21.8 µM) | 6.3 (≈ 11 µM) | 25 (≈ 43.7 µM) | COC(=O)c1ccc(-c2cn(CC(=O)Nc3c(C(C)C)ccc4c3CC[C@H]3[C@](C)(C(=O)OC)CCC[C@]43C)nn2)cc1 |  | 
12.5 (≈ 21.3 µM) | 25 (≈ 42.6 µM) | 6.3 (≈ 10.7 µM) | 12.5 (≈ 21.3 µM) | COC(=O)[C@]1(C)CCC[C@]2(C)c3ccc(C(C)C)c(NC(=O)Cn4cc(-c5nc(Cl)nc(Cl)n5)nn4)c3CC[C@@H]12 |  | 
6.3 (≈ 22.2 µM) | 6.3 (≈ 22.2 µM) | 3.1 (≈ 10.9 µM) | 6.3 (≈ 22.2 µM) | COc1cccc2c1CC[C@H]1[C@H]3COC(=O)C3=CC[C@]21C | 25.2 (≈ 88.6 µM) | 9.9 (≈ 34.8 µM)
6.3 (≈ 10 µM) | 12.5 (≈ 19.8 µM) | 12.5 (≈ 19.8 µM) | 25 (≈ 39.7 µM) | COC(=O)[C@]1(C)CCC[C@]2(C)c3ccc(C(C)C)c(NC(=O)Cn4cc(-c5cccc(NC(=O)OC(C)(C)C)c5)nn4)c3CC[C@@H]12 |  | 
6.3 (≈ 11 µM) | 6.3 (≈ 11 µM) | 3.1 (≈ 5.42 µM) | 6.3 (≈ 11 µM) | COC(=O)[C@]1(C)CCC[C@]2(C)c3ccc(C(C)C)c(NC(=O)Cn4cc(-c5cccc(NC(C)=O)c5)nn4)c3CC[C@@H]12 | 12.2 (≈ 21.3 µM) | 9.7 (≈ 17 µM)
6.3 (≈ 13.6 µM) | 0.8 (≈ 1.72 µM) | 6.3 (≈ 13.6 µM) | 1.6 (≈ 3.44 µM) | CCOCOC[C@]12CCC(=C(SC)SC)C(=O)[C@@H]1CCc1c2ccc(C(C)C)c1OC | 11.4 (≈ 24.5 µM) | 13.2 (≈ 28.4 µM)
3.1 (≈ 12.1 µM) | 6.3 (≈ 24.6 µM) | 6.3 (≈ 24.6 µM) | 3.1 (≈ 12.1 µM) | C=C1C(=O)CC[C@]2(C)c3cccc(OC)c3CC[C@@H]12 | 9.1 (≈ 35.5 µM) | 9.3 (≈ 36.3 µM)
3.1 (≈ 6.01 µM) | 12.5 (≈ 24.2 µM) | 3.1 (≈ 6.01 µM) | 6.3 (≈ 12.2 µM) | COC(=O)[C@]1(C)CCC[C@]2(C)c3ccc(C(C)C)c(NC(=O)Cn4cc(-c5cccnc5)nn4)c3CC[C@@H]12 | 48.2 (≈ 93.5 µM) | 47.9 (≈ 92.9 µM)
3.1 (≈ 8.6 µM) | 6.3 (≈ 17.5 µM) | 3.1 (≈ 8.6 µM) | 3.1 (≈ 8.6 µM) | CCOCO[C@]12CCC[C@]3(CO1)c1ccc(C(C)C)c(OC)c1CC[C@@H]23 | 8.2 (≈ 22.7 µM) | 5.4 (≈ 15 µM)
3.1 (≈ 9.11 µM) | 6.3 (≈ 18.5 µM) | 3.1 (≈ 9.11 µM) | 3.1 (≈ 9.11 µM) | COc1c(C(C)C)ccc2c1[C@H](O)C=C1C3=C(CCC12C)C(=O)OC3 (single isomer, unassigned) | 9.2 (≈ 27 µM) | 10.3 (≈ 30.3 µM)
1.6 (≈ 5.06 µM) | 0.8 (≈ 2.53 µM) | 1.6 (≈ 5.06 µM) | 1.6 (≈ 5.06 µM) | COc1cccc2c1CC[C@H]1[C@H]3COC(=O)[C@@]3(O)C(=O)C[C@]21C | > 50 | 47.5 (≈ 150 µM)
1.6 (≈ 3.1 µM) | 3.1 (≈ 6 µM) | 1.6 (≈ 3.1 µM) | 1.6 (≈ 3.1 µM) | COC(=O)[C@]1(C)CCC[C@]2(C)c3ccc(C(C)C)c(NC(=O)Cn4cc(-c5cncnc5)nn4)c3CC[C@@H]12 | 41.8 (≈ 80.9 µM) | 31.7 (≈ 61.4 µM)
0.8 (≈ 1.55 µM) | 6.3 (≈ 12.2 µM) | 25 (≈ 48.5 µM) | 3.1 (≈ 6.01 µM) | COC(=O)[C@]1(C)CCC[C@]2(C)c3ccc(C(C)C)c(NC(=O)Cn4cc(-c5ccncc5)nn4)c3CC[C@@H]12 |  | 
0.8 | 0.8 | 1.6 | 0.8 | NCC[C@H](O)C(=O)N[C@@H]1C[C@H](N)[C@@H](O[C@H]2O[C@H](CN)[C@@H](O)[C@H](O)[C@H]2O)[C@H](O)[C@H]1O[C@H]1O[C@H](CO)[C@@H](O)[C@H](N)[C@H]1O.O=S(=O)(O)O.O=S(=O)(O)O [AMIKACIN SULFATE] |  | 
